Converted amounts (≈) assume the structure as drawn.
Key:
Assay type in all cases: functional
Streptomyces albus = test: Antibacterial activity against Streptomyces albus Del14 assessed as inhibition zone at 10 ug incubated for 2 days by disc diffusion assay; conditions: Del14, 48 h, time 2 day, read-out: IZ
Streptomyces coelicolor = test: Antibacterial activity against Streptomyces coelicolor YF11 assessed as inhibition zone at 10 ug incubated for 2 days by disc diffusion assay; conditions: YF11, 48 h, time 2 day, read-out: IZ
Streptomyces lividans = test: Antibacterial activity against Streptomyces lividans SBT18 assessed as inhibition zone at 10 ug incubated for 2 days by disc diffusion assay; conditions: SBT18, 48 h, time 2 day, read-out: IZ
Micrococcus luteus = test: Antibacterial activity against Micrococcus luteus SCSIO ML01 by Mueller-Hinton broth microdilution method

| Structure (SMILES) | MIC (Micrococcus luteus) [µg/mL] | zone of inhibition at 10 µg/disc (Streptomyces albus) [mm] | zone of inhibition at 10 µg/disc (Streptomyces coelicolor) [mm] | zone of inhibition at 10 µg/disc (Streptomyces lividans) [mm] |
| --- | --- | --- | --- | --- |
| C/C=C\C=C\[C@@H]1O[C@](O)([C@H](CC)C(=O)NC/C=C/C=C(\C)[C@@H](OC)[C@@H](C)[C@H](O)[C@@H](O)\C=C/C=C/C=C/C=C(\C)C(=O)c2c(O)ccn(C)c2=O)[C@H](O)[C@H](O)C1(C)C | 8 (≈ 10.1 µM) | 15 | 8 | 8 |
| C/C=C\C=C\[C@@H]1O[C@](O)([C@@H](CC)C(=O)NC/C=C/C=C(\C)[C@H](OC)[C@H](C)[C@@H]2O[C@H](/C=C/C=C/C=C(\C)C(=O)c3c(O)ccn(C)c3=O)[C@@H](O)[C@H]2O)[C@H](O)[C@H](O[C@H]2O[C@@H](C)[C@H](O[C@@H]3O[C@@H](C)[C@H](O)[C@@H](O)[C@H]3OC)[C@H](OC)[C@@H]2O)C1(C)C | 8 (≈ 7.07 µM) | 15 |  |  |

Continued, in another order:

| MIC (Micrococcus luteus) [µg/mL] | Structure (SMILES) | zone of inhibition at 10 µg/disc (Streptomyces albus) [mm] | zone of inhibition at 10 µg/disc (Streptomyces coelicolor) [mm] | zone of inhibition at 10 µg/disc (Streptomyces lividans) [mm] |
| --- | --- | --- | --- | --- |
| 8 (≈ 7.17 µM) | C/C=C\C=C\[C@@H]1O[C@](O)([C@H](CC)C(=O)NC/C=C/C=C(\C)[C@@H](OC)[C@@H](C)[C@H](O)[C@@H](O)/C=C/C=C/C=C/C=C(\C)C(=O)c2c(O)ccn(C)c2=O)[C@H](O)[C@H](O[C@H]2O[C@@H](C)[C@H](O[C@@H]3O[C@@H](C)[C@H](O)[C@@H](O)[C@H]3OC)[C@H](OC)[C@@H]2O)C1(C)C | 15 |  |  |
| 8 (≈ 7.17 µM) | C/C=C\C=C\[C@@H]1O[C@](O)([C@H](CC)C(=O)NC/C=C/C=C(\C)[C@@H](OC)[C@@H](C)[C@H](O)[C@@H](O)\C=C/C=C/C=C/C=C(\C)C(=O)c2c(O)ccn(C)c2=O)[C@H](O)[C@H](O[C@H]2O[C@@H](C)[C@H](O[C@@H]3O[C@@H](C)[C@H](O)[C@@H](O)[C@H]3OC)[C@H](OC)[C@@H]2O)C1(C)C | 15 | 8 | 8 |
| 8 (≈ 7.07 µM) | C/C=C\C=C\[C@@H]1O[C@](O)([C@@H](CC)C(=O)NC/C=C/C=C(\C)[C@H](OC)[C@H](C)[C@@H]2O[C@H](/C=C/C=C/C=C(\C)C(=O)c3c(O)ccn(C)c3=O)[C@H](O)[C@H]2O)[C@H](O)[C@H](O[C@H]2O[C@@H](C)[C@H](O[C@@H]3O[C@@H](C)[C@H](O)[C@@H](O)[C@H]3OC)[C@H](OC)[C@@H]2O)C1(C)C | 15 |  |  |

— ChEMBL document CHEMBL5215005, “Discovery of Efrotomycin Congeners and Heterologous Expression-Based Insights into the Self-Resistance Mechanism” (2022)
